Assay results published in patent EP4768499A1, “MACROCYCLIC PEPTIDE COMPOUND HAVING CELL MEMBRANE PERMEABILITY AND METABOLIC STABILITY, AND LIBRARY CONTAINING SAME” (Chugai Seiyaku Kabushiki Kaisha, priority 2023, dated 2025).
Starred links: 1 amine or outer side, 2 acyl side, 3 side chain; linkers in the order of their positions; H or OH if unused. Positions of bridges follow the written chain, without caps; N, C: chain ends. Non-standard residues stand in square brackets, D forms with d. Residues, ends and D or L forms follow the SMILES beside them. *: point of attachment. NMeF = CN[C@@H](Cc1ccccc1)C(=O)O; NMeGABA = CN(CCCC(=O)[*:2])[*:1]; NMeI = CC[C@H](C)[C@H](NC)C(=O)O; NMeT = CN[C@H](C(=O)O)[C@@H](C)O; hPhe = N[C@@H](CCc1ccccc1)C(=O)O; NMeL = CN[C@@H](CC(C)C)C(=O)O; dNMeV = CN[C@@H](C(=O)O)C(C)C; NMeV = CN[C@H](C(=O)O)C(C)C; d(β3hA) = C[C@@H](N)CC(=O)O; NMeAbu = CC[C@H](NC)C(=O)O; NMeA = CN[C@@H](C)C(=O)O; Piperidide = C1CCN(*)CC1; dNMeA = CN[C@H](C)C(=O)O; Abu = CC[C@H](N)C(=O)O; NBuGly = CCCCNCC(=O)O; Sar = CNCC(=O)O; tBu = CC(C)(C)*

What was measured:
[1] = Metabolic stability test: liver microsomal stability assay; type: in vitro ADME, mouse; conditions: mouse liver microsomes 0.5 mg protein/mL, compound 1 µM; for microsomal CLint at 1 µM: male, pH 7.4, presence of NADPH, read-out: Mouse Hepatic Microsome CLh,int NADPH(+); for Mouse Hepatic Microsome CLh,int NADPH(-): absence of NADPH
Caco-2 cells = assay: Membrane permeability test using Caco-2 cells with preincubation; type: in vitro ADME; conditions: Caco-2 cells, preincubation 20 to 24 hours; apical FaSSIF/HBSS 1% DMSO pH 6.0, basal HBSS 4% BSA pH 7.4; basal sample at 180 minutes
[2] = as above; type: in vitro ADME; conditions: Caco-2; preincubation 20 to 24 hours; Apical FaSSIF/HBSS pH 6.0, Basal HBSS 4% BSA pH 7.4; 180 minutes; read-out: Caco2 Papp

Structure (SMILES)	microsomal CLint at 1 µM [1]	Mouse Hepatic Microsome CLh,int NADPH(-) [1]	Caco2 Papp (10^-6 cm/sec) (Caco-2 cells)	Papp A→B [2]
CC[C@H](C)[C@@H]1NC(=O)[C@H](C)N(C)C(=O)C[C@@H](C(=O)N2CCCCC2)NC(=O)[C@H](CC)N(C)C(=O)[C@H](COC(C)(C)C)NC(=O)[C@H](CC(C)C)N(C)C(=O)[C@H](C)N(C)C(=O)[C@H](CC(C)C)N(C)C(=O)[C@H](Cc2ccccc2)N(C)C(=O)CN(C)C(=O)[C@H]([C@@H](C)O)NC(=O)[C@H](CC(C)C)N(C)C(=O)[C@H](Cc2ccccc2)N(C)C1=O [pd121] ([NMeA]I[NMeF][NMeL]T[Sar][NMeF][NMeL][NMeA][NMeL]S(tBu)[NMeAbu]D-Piperidide; lactam N-13)	21.9 µL/min/mg	18.2 µL/min/mg Protein	1.02 10^-6 cm/sec	1.02 ×10⁻⁶ cm/s
CC[C@@H]1NC(=O)[C@@H]2CCCN2C(=O)[C@H](C(C)C)NC(=O)[C@H](Cc2ccccc2)N(C)C(=O)[C@H](C)N(C)C(=O)[C@H](CC(C)C)N(C)C(=O)[C@H]([C@@H](C)O)N(C)C(=O)[C@H](CC(C)C)N(C)C(=O)[C@H](CC)NC(=O)[C@H](Cc2ccccc2)N(C)C(=O)CN(C)C(=O)C[C@@H](C(=O)N2CCCCC2)NC(=O)[C@H](C(C)C)N(C)C1=O [pd122] ([Sar][NMeF][Abu][NMeL][NMeT][NMeL][NMeA][NMeF]VP[Abu][NMeV]D-Piperidide; lactam N-13)	11.1 µL/min/mg	9.6 µL/min/mg Protein	0.06 10^-6 cm/sec	0.06 ×10⁻⁶ cm/s
CCCCN1CC(=O)N(C)[C@@H](CC(C)C)C(=O)N[C@@H](COC(C)(C)C)C(=O)N(C)[C@@H](Cc2ccccc2)C(=O)N(C)[C@@H](C)C(=O)N(C)[C@@H](C(C)C)C(=O)N[C@H](C(=O)N2CCCCC2)CC(=O)N(C)[C@H](C(C)C)C(=O)N(C)[C@@H](Cc2ccccc2)C(=O)N2CCC[C@H]2C(=O)N(C)[C@@H](C(C)C)C(=O)N(C)[C@@H](CC(C)C)C(=O)N[C@@H]([C@@H](C)O)C1=O [pd123] ([dNMeV][NMeF]P[NMeV][NMeL]T[NBuGly][NMeL]S(tBu)[NMeF][NMeA][NMeV]D-Piperidide; lactam N-13)	31 µL/min/mg	36.0 µL/min/mg Protein	0.56 10^-6 cm/sec	0.56 ×10⁻⁶ cm/s
CC[C@H](C)[C@H]1C(=O)N2CCC[C@H]2C(=O)N(C)[C@@H](C(C)C)C(=O)N(C)[C@@H](Cc2ccccc2)C(=O)N(C)[C@@H](C)C(=O)N(C)[C@@H](CC(C)C)C(=O)N[C@@H]([C@@H](C)O)C(=O)N(C)[C@@H](C)C(=O)N[C@@H](CCc2ccccc2)C(=O)N(C)[C@@H](CC(C)C)C(=O)N[C@H](C(=O)N2CCCCC2)CC(=O)N(C)CCCC(=O)N(C)[C@@H](CC(C)C)C(=O)N1C [pd124] ([NMeGABA][NMeL][NMeI]P[NMeV][NMeF][NMeA][NMeL]T[NMeA][hPhe][NMeL]D-Piperidide; lactam N-13)	16.9 µL/min/mg	16.6 µL/min/mg Protein	0.13 10^-6 cm/sec	0.13 ×10⁻⁶ cm/s
CC[C@H](C)[C@H]1C(=O)N(C)[C@@H]([C@@H](C)O)C(=O)N(C)[C@@H](CC)C(=O)N(C)[C@@H](CC(C)C)C(=O)N2CCC[C@H]2C(=O)N[C@H](C(=O)N2CCCCC2)CC(=O)N(C)[C@@H](C)C(=O)N[C@@H](CC(C)C)C(=O)N(C)[C@@H](CC(C)C)C(=O)N(C)[C@@H](C)C(=O)N2CCC[C@H]2C(=O)N[C@@H](CCc2ccccc2)C(=O)N(C)[C@@H](CC(C)C)C(=O)N1C [pd125] ([NMeA]L[NMeL][NMeA]P[hPhe][NMeL][NMeI][NMeT][NMeAbu][NMeL]PD-Piperidide; lactam N-13)	16.7 µL/min/mg	18.1 µL/min/mg Protein	0.13 10^-6 cm/sec	0.13 ×10⁻⁶ cm/s
CC[C@H]1C(=O)N(C)CC(=O)N[C@@H]([C@@H](C)O)C(=O)N(C)[C@@H](CC(C)C)C(=O)N[C@@H](CC(C)C)C(=O)N(C)[C@@H](Cc2ccccc2)C(=O)N(C)[C@@H](C(C)C)C(=O)N2CCC[C@H]2C(=O)N(C)[C@@H](C)C(=O)N(C)[C@@H](C(C)C)C(=O)N[C@H](C(=O)N2CCCCC2)CC(=O)N(C)[C@@H](CC(C)C)C(=O)N(C)[C@@H](Cc2ccccc2)C(=O)N1C [pd126] ([NMeL][NMeF][NMeAbu][Sar]T[NMeL]L[NMeF][NMeV]P[NMeA][NMeV]D-Piperidide; lactam N-13)	23.3 µL/min/mg	18.2 µL/min/mg Protein	0.88 10^-6 cm/sec	0.88 ×10⁻⁶ cm/s
CC[C@H](C)[C@@H]1NC(=O)[C@H](CC(C)C)N(C)C(=O)[C@H](CC(C)C)NC(=O)[C@H](C)N(C)C(=O)C[C@@H](C)NC(=O)[C@H](CC(C)C)NC(=O)[C@H](CC(C)C)N(C)C(=O)CN(C)C(=O)[C@H](C(C)C)NC(=O)[C@H]([C@@H](C)CC)N(C)C(=O)[C@H](CC(C)C)N(C)C(=O)[C@H](C)NC(=O)[C@H](Cc2ccccc2)N(C)C1=O [pd127] (cyclo(A[NMeL][NMeI]V[Sar][NMeL]L[d(β3hA)][NMeA]L[NMeL]I[NMeF]))	41.6 µL/min/mg	28.0 µL/min/mg Protein	0.36 10^-6 cm/sec	0.36 ×10⁻⁶ cm/s
CC[C@@H]1NC(=O)CN(C)C(=O)[C@H]([C@@H](C)O)NC(=O)[C@H](CC(C)C)N(C)C(=O)[C@H](C(C)C)NC(=O)[C@H](Cc2ccccc2)N(C)C(=O)[C@H](C)N(C)C(=O)[C@@H](C)NC(=O)C[C@@H](C)NC(=O)[C@H](C(C)C)N(C)C(=O)[C@H](Cc2ccccc2)N(C)C(=O)[C@H](COC(C)(C)C)NC(=O)[C@H](CC(C)C)N(C)C1=O [pd128] (cyclo([Abu][NMeL]S(tBu)[NMeF][NMeV][d(β3hA)][dA][NMeA][NMeF]V[NMeL]T[Sar]))	18 µL/min/mg	11.3 µL/min/mg Protein	0.05 10^-6 cm/sec	0.05 ×10⁻⁶ cm/s
CC[C@@H]1NC(=O)[C@H](CC(C)C)N(C)C(=O)[C@H]([C@@H](C)CC)NC(=O)CN(C)C(=O)C[C@@H](C)NC(=O)[C@H](C(C)C)N(C)C(=O)[C@H](COC(C)(C)C)NC(=O)[C@H](CC(C)C)N(C)C(=O)[C@H](Cc2ccccc2)N(C)C(=O)[C@H](CC(C)C)NC(=O)CN(C)C(=O)[C@H]([C@@H](C)O)NC(=O)[C@H](CC(C)C)N(C)C1=O [pd129] (cyclo([Abu][NMeL]T[Sar]L[NMeF][NMeL]S(tBu)[NMeV][d(β3hA)][Sar]I[NMeL]))	76.5 µL/min/mg	19.7 µL/min/mg Protein	0.71 10^-6 cm/sec	0.71 ×10⁻⁶ cm/s
CC[C@H](C)[C@@H]1NC(=O)[C@H](Cc2ccccc2)N(C)C(=O)[C@H](C(C)C)NC(=O)[C@@H](C)N(C)C(=O)C[C@@H](C)NC(=O)[C@H](C(C)C)N(C)C(=O)[C@H](Cc2ccccc2)N(C)C(=O)[C@H](COC(C)(C)C)NC(=O)[C@H](CC(C)C)N(C)C(=O)[C@H](C)N(C)C(=O)[C@@H]2CCCN2C(=O)[C@H]([C@@H](C)O)NC(=O)[C@H](CC(C)C)N(C)C1=O [pd130] (cyclo(I[NMeL]TP[NMeA][NMeL]S(tBu)[NMeF][NMeV][d(β3hA)][dNMeA]V[NMeF]))	22.7 µL/min/mg	6.8 µL/min/mg Protein	3.88 10^-6 cm/sec	3.88 ×10⁻⁶ cm/s
